In patent publication US20220289794A1, “SYNTHETIC ANTIMICROBIAL PEPTIDES” (priority 2019, published 2022):
In brackets after ≈: the same amount, converted by molar mass. Positions of bridges follow the written chain, without caps; N, C: chain ends. Residues, ends and D or L forms follow the SMILES beside them.

Legend:
[1] = test system: Pseudomonas aeruginosa (ATCC 10145); details: ATCC 10145
[2] = test system: Pseudomonas aeruginosa (ATCC 27883); details: ATCC 27883
[3] = test system: Klebsiella pneumoniae (ATCC BAA-1705); details: ATCC BAA-1705
[4] = test system: Methicillin-resistant Staphylococcus aureus MRSA (ATCC BAA-1556); details: ATCC BAA-1556
[5] = test system: Escherichia coli (ATCC 25922); details: ATCC 25922
[6] = test system: Methicillin-resistant Staphylococcus aureus MRSA (ATCC BAA-1556); format: cell-based
Procedure: (§1) All bacteria pathogens tested clinically reported multi-drug resistant strains. The antibacterial activity was tested against Gram-negative strains namely; Pseudomonas aeruginosa (PSA), Klebsiella pneumoniae (KPC), Escherichia coli (E. coli) and Gram-positive Methicillin-resistant Staphylococcus aureus (MRSA). The minimum inhibitory concentration (MIC) is the lowest concentration of the antibiotic that inhibits microbial growths. MIC is determined by visual inspection or use of spectrophotometer plate reader to determine media turbidity. On the other hand, the minimum bactericidal concentration (MBC) is the lowest concentration that kills […] of bacterial growth. Cytotoxicity of peptides in the hepatic cell line, human skin fibroblast cell line, heart/myocardium cells, and human lung fibroblast cells is shown in FIGS. 36-46). […] (IFX-315)-Au-NP with antibiotics are shown in FIGS. 49-58 when the gold nanoparticles are formed by the peptide followed by addition of the antibiotic. […] (IFX-301) with antibiotics (1:1 ratio) first and then used in the synthesis of Au-NP in antibacterial activities is shown in FIGS. 59-68.
(§2) The MBC is identified by determining the lowest concentration of antibacterial agent that reduces the viability (concentration of peptides necessary to achieve a bactericidal effect) of the initial bacterial inoculum by ≥99.9%.

[7] = test system: Pseudomonas aeruginosa (ATCC 27883); format: cell-based; details: ATCC 27883
Procedure: as §1, §2

[8] = test system: Escherichia coli (ATCC 25922); format: cell-based
Procedure: as §1, §2

[9] = test system: Klebsiella pneumoniae (ATCC BAA-1705); format: cell-based
Procedure: as §1, §2

`N=C(N)NCCC[C@@H]1NC(=O)[C@H](CCCNC(=N)N)NC(=O)[C@H](CCCNC(=N)N)NC(=O)[C@H](CCCNC(=N)N)NC(=O)[C@H](Cc2c[nH]c3ccccc23)NC(=O)[C@H](Cc2c[nH]c3ccccc23)NC(=O)[C@H](Cc2c[nH]c3ccccc23)NC(=O)[C@H](Cc2c[nH]c3ccccc23)NC(=O)[C@H](CCCNC(=N)N)NC(=O)[C@H](CCCNC(=N)N)NC1=O` [[R6W4] IFX-301] (cyclo(RRRRRRWWWW)) was tested. Which MIC (KPC) did it give?
Its MIC is 64 µg/mL (≈ 38.1 µM).

What about the MIC (E. coli) of the same compound?
Its MIC is 32 µg/mL (≈ 19 µM).

What about the MIC (PSA) of the same compound?
The MIC was 16 µg/mL (≈ 9.51 µM).

And the MIC [1]?
The MIC was 32 µg/mL (≈ 19 µM).

How did the “PSA (ATCC 27883 MIC)” value [2] turn out when `N=C(N)NCCC[C@H](NC(=O)[C@H](CCCNC(=N)N)NC(=O)[C@H](CCCNC(=N)N)NC(=O)[C@H](CCCNC(=N)N)NC(=O)[C@@H](N)CS)C(=O)N[C@@H](Cc1c[nH]c2ccccc12)C(=O)N[C@@H](Cc1c[nH]c2ccccc12)C(=O)N[C@@H](Cc1c[nH]c2ccccc12)C(=O)N[C@@H](Cc1c[nH]c2ccccc12)C(=O)N[C@@H](CS)C(=O)O` [IFX-328] (H-CRRRRWWWWC-OH) was run?
The value was 512 µg/mL.

What about the “KPC (ATCC BAA-1705) MIC” value [3] of the same compound?
The value was 16 µg/mL.

And the “MRSA (ATCC BAA-1556) MIC” value [4]?
Its value is 64 µg/mL.

And the “E. coli (ATCC 25922) MIC” value [5]?
The value was 256 µg/mL.

What about the “MRSA (ATCC BAA-1556) MBC” value [6] of the same compound?
Its value is 128 µg/mL.

What about the “PSA (ATCC 27883) MBC” value [7] of the same compound?
The value was 512 µg/mL.

And the “E. coli (ATCC 25922) MBC” value [8]?
Its value is 512 µg/mL.

What about the “KPC (ATCC BAA-1705) MBC” value [9] of the same compound?
Its value is 32 µg/mL.

For `N=C(N)NCCC[C@@H]1NC(=O)[C@H](CCCNC(=N)N)NC(=O)[C@H](CCCNC(=N)N)NC(=O)[C@@H]2CSSC[C@H](NC(=O)[C@H](CCCNC(=N)N)NC1=O)C(=O)N[C@@H](Cc1c[nH]c3ccccc13)C(=O)N[C@@H](Cc1c[nH]c3ccccc13)C(=O)N[C@@H](Cc1c[nH]c3ccccc13)C(=O)N[C@@H](Cc1c[nH]c3ccccc13)C(=O)N2` [IFX-330] (cyclo(RRRCWWWWCR); disulfide 4-9), which “PSA (ATCC 27883 MIC)” value [2] is on record?
The value was 128 µg/mL.

And the “KPC (ATCC BAA-1705) MIC” value [3]?
The value was 32 µg/mL.

What about the “MRSA (ATCC BAA-1556) MIC” value [4] of the same compound?
Its value is 8 µg/mL.

What about the “E. coli (ATCC 25922) MIC” value [5] of the same compound?
Its value is 32 µg/mL.

And the “MRSA (ATCC BAA-1556) MBC” value [6]?
The value was 32 µg/mL.

And the “PSA (ATCC 27883) MBC” value [7]?
Its value is 256 µg/mL.

What about the “E. coli (ATCC 25922) MBC” value [8] of the same compound?
The value was 64 µg/mL.

And the “KPC (ATCC BAA-1705) MBC” value [9]?
Its value is 128 µg/mL.

Which “PSA (ATCC 27883 MIC)” value [2] does the source give for `N=C(N)NCCC[C@@H]1NC(=O)[C@H](CCCNC(=N)N)NC(=O)[C@H](CCCNC(=N)N)NC(=O)[C@H](CCCNC(=N)N)NC(=O)[C@@H](N)CSSC[C@@H](C(=O)O)NC(=O)[C@H](Cc2c[nH]c3ccccc23)NC(=O)[C@H](Cc2c[nH]c3ccccc23)NC(=O)[C@H](Cc2c[nH]c3ccccc23)NC(=O)[C@H](Cc2c[nH]c3ccccc23)NC1=O` [IFX-327] (H-CRRRRWWWWC-OH; disulfide 1-10) here?
Its value is 512 µg/mL.

And the “KPC (ATCC BAA-1705) MIC” value [3]?
Its value is 256 µg/mL.

And the “MRSA (ATCC BAA-1556) MIC” value [4]?
Its value is 32 µg/mL.

What about the “E. coli (ATCC 25922) MIC” value [5] of the same compound?
Its value is 256 µg/mL.

And the “MRSA (ATCC BAA-1556) MBC” value [6]?
The value was 64 µg/mL.

What about the “PSA (ATCC 27883) MBC” value [7] of the same compound?
The value was 512 µg/mL.

And the “E. coli (ATCC 25922) MBC” value [8]?
The value was 512 µg/mL.

What about the “KPC (ATCC BAA-1705) MBC” value [9] of the same compound?
Its value is 512 µg/mL.
